Measurements taken from patent US9561220B2, “Group of alkaloids, the novel autophagic enhancers for treatment of cancers and neurodegenerative conditions thereof” (Macau University of Science and Technology, priority 2014, dated 2017).
pIC50: −log10 of the molar value. Read-outs that look alike come from different tables or passages of the source.

Key:
[1] = tested on: Atg7-knockout (Atg7-ko or Atg7−/−) mouse embryonic fibroblasts; assay: GFP-LC3 puncta in Atg7 deficient MEFs; assay type: cell-based; settings: 20 μM liensinine or 10 μM others, 24 h (FIGS. 4a to 4c)
Procedure: GFP-LC3 puncta formation was quantified as previously described. In brief, both Atg7 wild-type (Atg7-wt or Atg7+/+) and deficient (Atg7-/-) mouse embryonic fibroblasts (MEFs) were transfected with GFP-LC3 plasmid and then grown on coverslips in a 6-well plate. The cells were then treated with 20 μM of […], 10 μM of isoliensinine, 10 μM of dauricine, 10 μM of cepharanthine, hernandezine or 10 μM of thalidezine. for 24 h. The cells were then fixed in 4% paraformaldehyde for 20 minutes at room temperature and then rinsed with PBS. Slides were mounted with FluorSaveTM mounting media (Calbiochem, San Diego, Calif.) and examined by fluorescence microscopy. The number of GFP-positive cells with GFP-LC3 puncta formation was examined under the Nikon ECLIPSE 80i microscope. Representative images were captured with CCD digital camera Spot RT3TM (Diagnostic Instruments, Inc., Melville, N.Y.). To quantify for autophagy, the percentage of cells with punctate GFP-LC3 fluorescence was calculated by counting the number of the cells with punctate GFP-LC3 fluorescence in GFP-positive cells. A minimum of 150 cells from 3 randomly selected fields were scored.

HeLa cancer cells = assay: Quantification of autophagy GFP-LC3 puncta in HeLa cells; assay type: cell-based, human; settings: 20 μM liensinine or 10 μM others, 4 hours, compared to DMSO control (FIG. 2a)
Procedure: GFP-LC3 puncta formation was quantified as previously described. In brief, GFP-LC3 transfected cells grown on coverslips in a 6-well plate were treated with or without 20 μM of […], 10 μM of isoliensinine, dauricine, cepharanthine, hernandezine or thalidezine for 4 hours, the cells were then fixed in 4% paraformaldehyde for 20 minutes at room temperature and then rinsed with PBS. Slides were mounted with FluorSaveTM mounting media (Calbiochem, San Diego, Calif.) and examined by fluorescence microscopy. The number of GFP-positive cells with GFP-LC3 puncta formation was examined under the Nikon ECLIPSE 80i microscope. Representative images were captured with CCD digital camera Spot RT3TM (Diagnostic Instruments, Inc., Melville, N.Y.). To quantify for autophagy, the percentage of cells with punctate GFP-LC3 fluorescence was calculated by counting the number of the cells with punctate GFP-LC3 fluorescence in GFP-positive cells. A minimum of 150 cells from 3 randomly selected fields was scored.

AMPK = assay: Detection of mTOR signaling marker proteins: AMPK phosphorylation (Western blot); assay type: cell-based, human; settings: HeLa cells, 20 μM liensinine or 10 μM others, compared to DMSO control (FIG. 5a)
Procedure: HeLa cells treated with 20 μM of […], 10 μM of isoliensinine, 10 μM of dauricine, 10 μM of cepharanthine, 10 μM of hernandezine and 10 μM of thalidezine were harvested and lysed in RIPA buffer (Cell Signaling). The cell lysates were then resolved by SDS-PAGE. After electrophoresis, the proteins from SDS-PAGE were transferred to nitrocellulose membrane which was then blocked with 5% non-fat dried milk for 60 minutes. The membrane was then incubated with P-p70S6K, p70S6K, P-AMPK, AMPK and actin primary antibodies (1:1000) in TBST overnight at 4° C. respectively. After that, the membrane was further incubated with HRP-conjugated secondary antibodies for 60 minutes. Finally, protein bands were visualized by using the ECL Western Blotting Detection Reagents (Invitrogen).

[2] = tested on: panel of human cancer cells (HeLa, MCF-7, HepG2, Hep3B, H1299, A549, PC3); assay: cells; assay type: cell-based
Procedure: The test compounds of liensinine, isoliensinine, dauricine, cepharanthine, hernandezine and thalidezine were dissolved in DMSO at a final concentration of 100 mmol/L and stored at −20° C. Cytotoxicity was assessed using the 3-(4,5-dimethylthiazol-2-yl)-2,5-diphenyltetrazolium bromide assay as described previously. 4000-8000 HeLa (human cervical cancer), MCF-7 (human breast cancer), HepG2 (human liver cancer), Hep3B (human liver cancer), H1299 (human lung cancer), A549 (human lung cancer), PC3 (human prostate cancer) and LO2 (human normal liver) cells were seeded on 96-well plates per well. After overnight pre-incubation, the cells were exposed to different concentrations of liensinine, isoliensinine, dauricine, cepharanthine, hernandezine and thalidezine (0.039-100 μmol/L) for 3 days. Specifically, the following concentrations are used for all of the above alkaloids: […], 0.039 μmol/L. Subsequently, 10 μL of MTT reagents was added to each well and incubated at 37° C. for 4 hours followed by the addition of 100 μL solubilization buffer (10% SDS in 0.01 mol/L HCl) and overnight incubation. Absorbance at 585 nm was determined from each well on the following day. The percentage of cell viability was calculated using the following formula: Cell viability (%)=Cells number treated/Cells number DMSO control×100. Data was obtained from three independent experiments.

[3] = tested on: EGFP-tagged mutant huntingtin (HDQ55, HDQ74); assay: Removal of mutant huntingtin by immunoblotting against EGFP; assay type: cell-based; settings: PC 12 cells, 5-10 μM, 24 h, immunoblotting against EGFP antibody (FIG. 8b)
Procedure: PC 12 cells were transfected transiently with EGFP-HDQ55/74 plasmids for 24 h using Lipofectamine Plus LTX reagent (Invitrogen) according to the manufacturer's protocol. The transfected cells were then treated with […], isoliensinine, dauricine, cepharanthine, hernandezine and thalidezine for 24 h. The removal of mutant huntingtin, ([…]74) was then quantitated by immunoblotting with antibody against EGFP or by immunocytochemistry under fluorescence microscopy.

[4] = tested on: autophagy deficient cells (Atg7−/− or Atg7-ko) MEFs; assay: Annexin V / propidium iodide flow cytometry in Atg7 wild-type and deficient MEFs; assay type: cell-based, mouse
Procedure: Cell viability was measured using an annexin V staining kit (BD Biosciences, San Jose, Calif., USA). Briefly, Atg7 wild-type (Atg7+/+ or Atg7-wt) and Atg7 deficient (Atg7−/− or Atg7-ko) mouse embryonic fibroblasts (MEFs) were treated with the selected alkaloids for 24 h. Cells were then harvested and analysed by multiparametric flow cytometry using FITC-Annexin V and Propidium iodide staining (BD Biosciences, San Jose, Calif., USA) according to the manufacturer's instructions. Flow cytometry was then carried out using a FACSCalibur flow cytometer (BD Biosciences, San Jose, Calif., USA). Data acquisition and analysis was performed with CellQuest (BD Biosciences, San Jose, Calif., USA). Data were obtained from three independent experiments.

[5] = Homo sapiens, 72 h, read-out: mean IC50 value (cell cytotoxicity)
[6] = MEFs, 24 h, annexin V/PI flow cytometry (FIGS. 6a to 6c)

Compound	GFP-LC3 puncta formation in Atg7-knockout cells [1]	GFP-LC3 puncta formation (HeLa cancer cells)	phosphorylation of AMPK (AMPK)	pIC50 [2, 5]	clearance of overexpressed EGFP-tagged mutant huntingtin (HDQ55, HDQ74) [3]	cytotoxic effect to autophagy deficient cells (Atg7−/−) versus Atg7 wild-type [4]	pIC50 [2]	cytotoxic effect to autophagy deficient cells (Atg7−/−) versus Atg7 wild-type [4, 6]
COc1ccc2cc1Oc1ccc(cc1)C[C@H]1c3cc(c(OC)cc3CCN1C)Oc1c(OC)c(OC)c(OC)c3c1[C@H](C2)N(C)CC3 [hernandezine]	not	significantly induced	activate	4.21 to 5.34	enhanced	–	–	–
thalidezine	not	significantly induced	activate	–	enhanced	less cytotoxicity	4.21 to 5.34	–
COc1cc2c(cc1OC)[C@@H](Cc1ccc(O)c(Oc3cc4c(cc3OC)CCN(C)[C@@H]4Cc3ccc(O)cc3)c1)N(C)CC2 [liensinine]	not	significantly induced	activate	–	enhanced	–	4.21 to 5.34	less cytotoxicity
COc1ccc(C[C@@H]2c3cc(Oc4cc(C[C@@H]5c6cc(O)c(OC)cc6CCN5C)ccc4O)c(OC)cc3CCN2C)cc1 [isoliensinine]	not	significantly induced	activate	4.21 to 5.34	enhanced	–	–	less cytotoxicity
COc1cc2c(cc1OC)[C@@H](Cc1ccc(Oc3cc(C[C@@H]4c5cc(OC)c(OC)cc5CCN4C)ccc3O)cc1)N(C)CC2 [dauricine]	not	significantly induced	activate	4.21 to 5.34	enhanced	–	–	less cytotoxicity
